Experimental data as given in publication PMC8325676, “The tea plant CsLHT1 and CsLHT6 transporters take up amino acids, as a nitrogen source, from the soil of organic tea plantations” (Horticulture Research, 2021).

B1: CsLHT6 (Camellia sinensis) (protein)
chain: MVSNSPPAPKEVPTEEDQWTEKGPPREAKWWYSTFHTVTAMVGAGVLSLPYAMAYLGWGPGTMLLVFSWCITLNTMWQMIQLHECVPGVRFDHYYDLGRHAFGPKLGPWIVLPQQLIVQVGCDIVYMVTGGKCLKKFMEIVCTNCTRIKQSYWICIFGSTHFFLSQLPNFNSVSGVSLAAAIMSLSYSTIAWVGCLSKGRVENVSYAYKKTSGADSMFRVFNALGEITFAYAGHAVVLEIQATVPSTPEMPSKVPMWKGAVWAYFINAICYFPVALIGYWAFGQDVADNVLVALERPSWLIAAANLMVVIHVIGSYQVYAMPVFDLLEKAMVKRLSFPPGIGLRIIVRSAYVAFTLFVGVTFPFFGDLLGFFGGFGFAPTSYFLPSIIWLIIKKPKRFSISWFINWACIYIGVFVMLASTIGGLRNIVIDSSTYEFYS
notes: cloned from root cDNA

Assays:
CsLHT1 = settings: 10-500 µM 15N-Glu, 10 min, 30°C; labelled compound
[1] = substrate: N[C@@H](CCC(=O)O)C(=O)O; assay: cells, lysate or membranes; format: cell-based, Camellia sinensis; settings: 0.5-20 mM 15N-Glu, 10 min, 30°C, labelled compound

Row | Molecule | Km (CsLHT1) [µM] | Km [1] [µM]
1 | N[C@@H](CCC(=O)O)C(=O)O [15N-Glu] | 39.9 | 
2 | B1 |  | 2500
